PubChem BioAssay (NCI)
Several values for one entry are separate records, joined by “and”; a condition that tells them apart may be missing. Equal entries are not always repeated.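 Briefly, cells in 96-well plates were exposed to five compound concentrations for 48 h, and endpoints were estimated by linear interpolation. At the GI50, growth is halved. TGI is the concentration that stops growth completely.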

Key:
Experiment in all cases: NCI-60 cell line screen, 48 h
[1] = system: UACC-62 melanoma
[2] = system: CAKI-1 renal
[3] = system: ACHN renal
[4] = system: COLO 205 colon
[5] = system: NCI/ADR-RES ovarian
[6] = system: OVCAR-8 ovarian
[7] = system: RXF 393 renal
[8] = system: MCF7 breast
[9] = system: SK-MEL-28 melanoma
[10] = system: 786-0 renal

SMILES	GI50 [1] [µM]	TGI [1]	GI50 [2]	TGI [2]	GI50 [3] [µM]	TGI [3]	GI50 [4] [µM]	TGI [4]	GI50 [5] [µM]	TGI [5]	GI50 [6] [µM]	TGI [6]	GI50 [7] [µM]	TGI [7] [µM]	GI50 [8] [µM]	TGI [8]	GI50 [9] [µM]	TGI [9]	GI50 [10] [µM]	TGI [10]
C=C/C(C)=C/C[C@]1(C)[C@H](C)[C@@H](OC(=O)CCC)[C@H](O)[C@@]23C(=C[C@H](OC)C[C@@H]12)[C@@H](OC(=O)CCC)O[C@H]3OC(C)=O	0.529	1.88 µM	1.32 µM	2.64 µM	0.234	0.619 µM	0.444	1.73 µM	0.88	2.46 µM	0.447	2.42 µM	0.262	0.696	1.16	2.91 µM	0.431	1.63 µM	0.287	0.888 µM
O=S1(=O)N(Cc2ccccc2)[C@@H](Cc2ccccc2)[C@H](O)[C@H](O)[C@H](Cc2ccccc2)N1Cc1ccccc1	2.86	6.4 µM	3.65 µM	7.33 µM	6.01	> 20 µM	4.26	10.4 µM	3.4	8.58 µM	4.2	11.2 µM	2.6	5.24	4.77	13.6 µM	3.35	6.9 µM	3.24	6.86 µM
O=C(Nc1ccc(F)cc1F)c1cc(Cl)ccc1O	0.489	3.03 µM	1.31 µM	5.51 µM	2.09	7.68 µM	7.79	22.5 µM	2.52	13.3 µM	2.38	13.3 µM	1.37	5.1	2.05	> 100 µM	0.754	8.69 µM	2.71	7.69 µM
NS(=O)(=O)c1ccc(N2N=C3c4ccccc4CC3C2c2cccs2)cc1 (configuration not stated)	21.8	44.3 µM	19.6 µM	38.2 µM	19.8	36.3 µM	58.9	> 100 µM	17.1	43.4 µM	15.3	40.1 µM	20.6	62.6	> 100	> 100 µM	75.6	> 100 µM	17.6	41.7 µM
C1=C/COCc2cc(ccc2OCCN2CCCC2)Nc2nccc(n2)-c2ccc(o2)COC/1	1.42	3.08 µM	0.46 µM	3.28 µM	0.699	11.8 µM	1.29	2.75 µM	2.9	8.62 µM	2.59	18.8 µM	0.397	1.64	0.734	3.84 µM	1.65	5.26 µM	2.71	13 µM
O=C(/C=C/c1ccc(C(F)(F)F)cc1)Nc1ccc(C=C2c3ccccc3C(=O)c3ccccc32)cc1	3.04	63.7 µM	3.39 µM	> 100 µM	19.4	> 100 µM	6.18	38.4 µM	2.86	30.9 µM	15.4	> 100 µM	8.26	60.4	4.54	> 100 µM	7.38	> 100 µM	13.6	> 100 µM
CCOc1ccc(/C(C=O)=C(\Cl)c2ccc(OC)cc2)cc1	–	> 100 µM	–	> 100 µM	–	> 100 µM	–	> 100 µM	–	> 100 µM	–	> 100 µM	–	> 100	–	> 100 µM	–	> 100 µM	–	> 100 µM
NC(=O)[C@@H](CC1CC1)[C@@H](CCC(F)(F)F)C(=O)N[C@H]1N=C(c2ccccc2)c2cccc(F)c2NC1=O	> 100	> 100 µM	> 100 µM	> 100 µM	66	> 100 µM	> 100	> 100 µM	> 100	> 100 µM	> 100	> 100 µM	68	> 100	28.3	> 100 µM	19.7	52.4 µM	17.8	53.9 µM
[O-][N+]1(CC[N+]2([O-])CCCCC2)CCCCC1	–	> 100 µM	–	> 100 µM	–	> 100 µM	–	> 100 µM	–	> 100 µM	–	> 100 µM	–	> 100	–	> 100 µM	–	> 100 µM	–	> 100 µM
c1cc(-c2nnc(SSc3ncnc4nc[nH]c34)o2)ccn1	2.02	> 100 µM	0.472 µM	5.17 µM	4.07	> 100 µM	3.3	23.8 µM	2.74	> 100 µM	3.26	> 100 µM	6.59	> 100	0.419	> 100 µM	43.7	> 100 µM	0.986	> 100 µM
CN1CCN(Cc2ccc(NC(=O)c3cncc(C#Cc4cnc(N)cc4C#N)c3)cc2C(F)(F)F)CC1	0.877	3.92 µM	3.78 µM	16.7 µM	1.57	9.39 µM	1.39	12.8 µM	13.7	33.4 µM	4.51	19 µM	1.45	5.55	3.64	16.2 µM	1.11	9 µM	4.38	16 µM
CN(C)c1ccc(/C=C2\N=C(c3ccccc3)N(c3cc(C(F)(F)F)ccc3Cl)C2=O)cc1	> 100	> 100 µM	> 100 µM	> 100 µM	> 100	> 100 µM	> 100	> 100 µM	> 100	> 100 µM	> 100	> 100 µM	> 100	> 100	99.8	> 100 µM	> 100	> 100 µM	> 100	> 100 µM
COc1ccc(NC(=O)/C=C(C)/C=C/C=C(C)/C=C/C2=C(C)CCCC2(C)C)cc1	10.7	22.9 µM	3.28 µM	14.4 µM	3.21	12.4 µM	3.52	10.9 µM	13.9	31.1 µM	13	38.5 µM	12.8	26.2	3.28	12.4 µM	4.13	14.1 µM	14.4	28.7 µM
CN(C)c1nc(=NCc2ccco2)ss1	–	> 70.5 µM	–	49.1 µM	–	45 µM	–	> 68.5 µM	–	> 100 µM	–	62.4 µM	–	16.1	–	33.1 µM	–	46.4 µM	–	16.9 µM
CSc1ncc(Br)c(Sc2nc(N)nc3nc[nH]c23)n1	2.48	12.2 µM	1.84 µM	34.1 µM	4.5	43.6 µM	3.09	9.17 µM	3.64	> 100 µM	3.78	> 100 µM	2.97	28.5	1.91	11.9 µM	6.63	53 µM	3.82	> 100 µM
CN1CCN(CCOc2ccc(-c3cnc4c(-c5cccc(F)c5)cnn4c3)cc2)CC1	1.73	3.29 µM	1.61 µM	3.12 µM	1.66	3.02 µM	–	–	2.47	6.14 µM	2.45	7.12 µM	1.66	3.22	1.51	3.13 µM	2.07	4.54 µM	1.79	3.42 µM
COC(=O)C(CCC(=O)CCl)N1C(=O)c2ccccc2C1=O (configuration not stated)	–	26 µM	–	26.7 µM	–	13.9 µM	–	40.3 µM	–	29.7 µM	–	19 µM	–	6.45	–	18.5 µM	–	23.5 µM	–	15.2 µM
O=C(Nc1ccc(-n2ccc3c(NC(=O)c4ccccc4)ncnc32)cc1)c1cccc(C(F)(F)F)c1	0.809	11.1 µM	1.13 µM	> 44.6 µM	1.09	23.6 µM	4.1	20.9 µM	2.67	37.4 µM	1.16	29.2 µM	3.39	19.9	1.39	18.5 µM	10.6	24.9 µM	2.91	21.9 µM
CCOc1ccc2c(c1)C(=O)c1c-2n(CCCBr)c(=O)c2cc([N+](=O)[O-])ccc12	5.73	> 100 µM	8.15 µM	> 100 µM	3.76	69.7 µM	41.3	> 100 µM	9.06	> 100 µM	4.8	> 100 µM	37.9	> 100	0.344	63.8 µM	88.8	> 100 µM	13.6	> 100 µM
CC1=C2C(=CC(C)(C)[C@@H]2O)C(=O)[C@](C)(O)C12CC2	–	0.0623 µM and 0.0678 µM	0.0129 µM and 0.0436 µM	0.0697 µM and 0.594 µM	0.00796	0.0625 µM and 0.114 µM	0.0209	0.0989 µM and 0.0977 µM	0.0223	0.104 µM and 0.0155 µM	0.0294	0.182 µM and 1.29 µM	–	0.0199	0.00472	0.0469 µM and 0.123 µM	–	0.0756 µM and 0.0891 µM	–	0.0532 µM and 0.067 µM
CC(C)c1nc(N(C)S(C)(=O)=O)nc(-c2ccc(F)cc2)c1/C=C/[C@@H](O)C[C@@H](O)CC(=O)O	42.1	> 100 µM	67.7 µM	> 100 µM	34.2	> 100 µM	> 100	> 100 µM	48.6	> 100 µM	> 85.4	> 100 µM	41.5	> 100	> 100	> 100 µM	> 100	> 100 µM	> 100	> 100 µM
COc1cccc(CN(C)c2ccc(CO)c(Cl)c2)c1	0.19	1.63 µM	2.82 µM	> 59.3 µM	42.1	> 100 µM	3.18	11.7 µM	19.1	67 µM	20.7	> 96.5 µM	11.2	> 62.2	0.504	> 43.7 µM	24.2	> 100 µM	13.9	> 67.6 µM
CCCn1cnc2c(SCC(=O)O)nc(N)nc21	–	> 100 µM	–	> 100 µM	–	> 100 µM	–	> 100 µM	–	> 100 µM	–	> 100 µM	–	> 100	–	> 100 µM	–	> 100 µM	–	> 100 µM
CCN(Cc1cc(F)ccc1F)c1ccc(CO)c(Cl)c1	0.0877	0.602 µM	0.416 µM	5.1 µM	14.3	29.6 µM	2.17	6.72 µM	13.6	39.9 µM	13	36.2 µM	4.16	17.3	0.181	12.7 µM	13.8	27.5 µM	11.8	26.9 µM
Cc1cc(Cl)ccc1OCC(=O)Nc1nc(N)nc(N)n1	–	> 100 µM	–	> 100 µM	–	> 100 µM	–	> 100 µM	–	> 100 µM	–	> 100 µM	–	> 100	–	> 100 µM	–	> 100 µM	–	> 100 µM
C[Si](C)(c1ccc(C(=O)O)cc1)c1ccc(C(=O)O)cc1	–	> 100 µM	–	> 100 µM	–	> 100 µM	–	> 100 µM	–	> 100 µM	–	> 100 µM	–	> 100	–	> 100 µM	–	> 100 µM	–	> 100 µM
Cc1cc(Nc2nc(C(=O)Nc3ccccc3)nc3ccccc23)n[nH]1	–	–	1.87 µM	> 25 µM	2.87	> 25 µM	14.4	> 25 µM	0.916	> 25 µM	14.5	> 25 µM	3.66	> 25	13	> 25 µM	> 25	> 25 µM	10.1	> 25 µM
